One data set deals with A549. Particulars: 2D; ref [68]; cited from earlier work. An excerpt: (§1) Table 1 ACP activity comparison. Reported in vitro anticancer activity (IC50) of ACPs | column: IC50 [µM]
The next data set has as its system tumor in mouse. The note with it: dose: 25 mg kg^−1; ref [68]; cited from earlier work. The text has this: (§2) Table 1 ACP activity comparison. Reported in vitro anticancer activity (IC50) of ACPs | column: Assay and Notes
In the next data set the test system is HMLER. Description: cells. The data set is classed as cell-based, human. Particulars: 2D culture, MTT, 72 h incubation; library peptides average of two independent experiments (n = 2); D-enantiomers and small molecules replicated six times; read-out: IC50 (µM) HMLER. An excerpt:
(§3) […], and MCF-10A cells were maintained in MEGM with supplements and growth factors bovine pituitary extract, hydrocortisone, human epidermal growth factor, insulin, and gentamicin/amphotericin-B.

The test system of data set [1] is HMLER‐shEcad. Briefly: cells. It counts as cell-based, human. The note with it: for IC50: 2D culture.
Description: as §3

The subject of a further data set is MCF‐10A. Description: cells. Particulars: for IC50: non-cancerous cells, MTT, 72 h incubation, library peptides n = 2, D-enantiomers and small molecules replicated six times, read-out: IC50 (µM) MCF-10A. The data set is classed as cell-based, human.
Description: as §3

Another data set relates to U2OS. It counts as cell-based, human. Particulars: 2D culture, MTT, 72 h incubation; library peptides n = 2; D-enantiomers and small molecules replicated six times; read-out: IC50 (µM) U2OS.
The subject of a further data set is HEK293T. Description: cells. The data set is classed as cell-based, human. Particulars: non-cancerous cells; 2D culture, MTT, 72 h incubation; library peptides n = 2; D-enantiomers and small molecules replicated six times; read-out: IC50 (µM) HEK293T.
A further data set relates to human red blood cells. Description: Haemolysis (human red blood cells). It counts as cell-based. Particulars: PBS, 37 °C, 1 h. The procedure: Fresh human red blood cells were obtained from Interstate Blood Bank, Inc., and thoroughly washed in PBS until the supernatant was clear. The peptide was serially diluted in PBS starting at a concentration of 200 µM. […] As a positive lysis control, 1% triton was used. […] After centrifugation, 10 µL of supernatant was transferred to 90 µL of ddH2O in a fresh 96‐well plate.

Data set [2] is described as follows: Tryptophan fluorescent binding assay. Particulars: tryptophan fluorescence; 50 µM peptide, lipid titrated 0-5000 µM; phosphate buffered saline 1X, pH 7.4; values as lipid per peptide. The essentials:
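Tryptophan fluorescence was used to follow binding of peptide, fixed at 50 µM, to large unilamellar vesicles of POPC:POPG (3:1 ratio) titrated into phosphate buffered saline (1X, pH 7.4). After 1 h incubation, spectra were taken on a BioTek Cytation 5 reader with excitation at 280 nm and emission at 300 to 450 nm (9 nm slits), averaging three scans.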

Data set [3] is described as follows: ANTS/DPX liposome leakage assay. The note with it: 0.5 mM vesicles, peptide 0-20 µM, 3 h incubation, lipid per peptide. The essentials:
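Extruded 0.1 µm POPC or POPC/POPG (3:1) vesicles were loaded with 5 mM ANTS and 12.5 mM DPX, gel-filtered, then used at 0.5 mM lipid with titrated peptide at pH 7.4 or pH 4.8 (acidified PBS). Leakage was read at ex 350/em 510 nm after 3 h against 10% Triton maximum, expressed as lipid/peptide ratio for 50% leakage.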

The test system of data set [4] is HMLER‐shEcad. Briefly: Resistance formation after prolonged drug exposure, 2D culture. The data set is classed as cell-based, human. The note with it: for IC50: Homo sapiens. The procedure: Cancer stem cells can survive treatment, gain resistance, and reseed tumors, presenting a major challenge for chemotherapy.^[ [2] ^] […] Drugs were added with medium every 3–4 days, maintaining smooth cell growth, and 125 000 cells were split into new T25 flasks with a total volume of 5 mL once per week.

Data set [5] in a line: Tryptophan fluorescence and circular dichroism binding to vesicles. The note with it: binding to both POPC and POPG vesicles; 50 µM peptide, 10 mM phosphate buffer, pH 7.0. The procedure: 50 µM ACP peptides and varied concentrations (concentrations: 0, 25, 50, 100, 150, 200, 250, 500, 1250, and 2500 µM) of POPC or POPC:POPG (3:1 ratio) large unilamellar vesicles were prepared in 10 mM phosphate buffer (pH 7.0). The solutions were measured after 1 h of incubation. Excitation was fixed at 280 nm (slit 9 nm) and emission was collected from 300 to 450 nm (slit 9 nm). The spectra were recorded using Cytation 5 Cell Imaging Multi‐Mode Reader from BioTek and were averaged by three scans.
Extended Data Figure 9 | Peptide-lipid interactions. Conformational change of tryptophan fluorescence quenching of 50 µM DHK peptide with titrated a, POPC or b, POPG LUV concentration (0, 12.5, 25, 50, […]
POPC or d, POPG LUV against elevated temperature (20, 45, 70, and 95 °C). The black solid line represents peptide-only in buffer at 20 °C. All the experiments were performed in 10 mM phosphate buffer, pH 7.0.
(1 picture or pasted object on this page, not shown here)
On the technique in general: CD spectra are sensitive to the conformation of chiral molecules.

Data set [6] relates to various. Particulars: 2D; ref [70]; cited from earlier work.
Description: as §1

Another data set concerns MCF‐7. The note with it: 2D; ref [11], [19], [47]; cited from earlier work.
Description: as §1

For data set [7] the following is noted: cited from earlier work.
Description: as §2

The subject of data set [8] is HMLER‐shEcad tumorspheres. Description: cells. It counts as cell-based, human. Particulars: for IC90: reducing tumorsphere cell viability by 90%, read-out: IC90 against HMLER‐shEcad tumorspheres.
In the next data set the test system is MCF‐10A mammospheres. Description: Mammosphere viability assay (TOX8). It counts as cell-based, human.
The test system of data set [9] is various. Particulars: read-out: IC50 [µM], various; 2D and 3D tumorspheres; summary of Figures 2, 3 and 5. The text has this: The final concentration of DMSO in each well was either 0.5% or 0% and this amount was present in the untreated control.
Another data set relates to HCT116. Particulars: 2D; ref [69]; cited from earlier work.
Description: as §1

The next data set deals with A20, AT84, MRC‐5. Particulars: ref [22], [23], [57], [63]; cited from earlier work.
Description: as §1

Setting [10] is: PBS 1X pH 7.4, high ratio = more potent.

Counter-ions that a name gives are not always drawn. Like-named read-outs stand apart in the source and are kept apart here. Square brackets hold non-standard residues; d marks the D form. Peptide text beside a SMILES is read from it.

Consider eight compounds from publication PMC9069370, “Integrated Design of a Membrane‐Lytic Peptide‐Based Intravenous Nanotherapeutic Suppresses Triple‐Negative Breast Cancer” (Advanced Science, 2022).

By HC50 is commonly meant the concentration giving 50% haemolysis. By IC90 is commonly meant the concentration at which the effect reaches the 90% level.

Take Magainin II: in the data set with A549, the IC50 was 45 µM. Also, the “outcome in mouse xenograft model” value in the data set with tumor in mouse was 2D and mouse xenograft model (dose: 25 mg kg^−1); The tumor in mouse was smaller and still growing in 40 days.

For the compound `CC(C)C[C@H](NC(=O)CN)C(=O)N[C@@H](CC(C)C)C(=O)N[C@@H](CC(=O)O)C(=O)N[C@@H](CC(C)C)C(=O)N[C@@H](CC(C)C)C(=O)N[C@@H](Cc1c[nH]cn1)C(=O)N[C@@H](CC(C)C)C(=O)N[C@@H](CC(C)C)C(=O)N[C@@H](CC(C)C)C(=O)N[C@@H](CCCCN)C(=O)N[C@@H](C)C(=O)N[C@@H](C)C(=O)NCC(=O)N[C@@H](Cc1c[nH]c2ccccc12)C(N)=O` [DHK] (H-GLLDLLHLLLKAAGW-NH2), the IC50 came out at 1.75 ± 0.49 µM with HMLER; 1.02 ± 0.12 µM in the data set with HMLER‐shEcad [1] (MTT, 72 h incubation, library peptides average of two independent experiments (n = 2), D-enantiomers and small molecules replicated six times, read-out: IC50 (µM) HMLER-shEcad); 5.05 ± 1.34 µM in the data set on MCF‐10A (2D culture); 20.4 ± 2.05 µM in the data set on U2OS; 7.3 ± 0.42 µM with HEK293T. In the data set with human red blood cells (one value for DHK, d‐DHK and d‐EEK together), the 50% haemolytic concentration (HC50) was 14 ± 5 µM. Also, in data set [2], the “Lipid Concentration-induced 50% Peptide Binding (L/P), 3POPC/1POPG Vesicle” value is 0.38 L/P. Also, the “Lipid Concentration-induced 50% Peptide Binding (L/P), POPC Vesicle” value in [2] was found to be 0.20 L/P. Besides, the “Peptide Concentration-induced 50 % ANTS/DPX leakage at pH 4.8 (L/P), 3POPC/1POPG Vesicle” value in data set [3] (HCl-adjusted PBS 1X pH 4.8) came to 183 L/P. Moreover, in data set [3] (HCl-adjusted PBS 1X pH 4.8), the “Peptide Concentration-induced 50 % ANTS/DPX leakage at pH 4.8 (L/P), POPC Vesicle” value was found to be 47 L/P. Further, the “Peptide Concentration-induced 50 % ANTS/DPX leakage at pH 7.4 (L/P), 3POPC/1POPG Vesicle” value in data set [3] (setting [10]) is recorded as 469 L/P. In data set [3] (setting [10]), the “Peptide Concentration-induced 50 % ANTS/DPX leakage at pH 7.4 (L/P), POPC Vesicle” value came to 747 L/P. For the same compound, the “shift in IC50 after prolonged exposure to ACP” value in the data set with HMLER‐shEcad [4] (2D HMLER‐shEcad after 28 days co‐incubation with 0.4 µM d‐DHK) is reported as “no shift in IC50”. For the same compound, the “∆G binding” value in data set [5] was -8.8 ± 1.2 kcal/mol.

Turning to Aurein 1.2, the IC50 in the data set on various [6] is 10 to 100 µM.

`CC(C)[C@H](NC(=O)[C@H](CCCCN)NC(=O)[C@@H](NC(=O)[C@H](CCCCN)NC(=O)[C@@H](NC(=O)[C@H](CCCCN)NC(=O)[C@@H](NC(=O)[C@@H]1CCCN1C(=O)[C@H]1CCCN1C(=O)[C@@H](NC(=O)[C@H](CCCCN)NC(=O)[C@@H](NC(=O)[C@H](CCCCN)NC(=O)[C@@H](NC(=O)[C@H](CCCCN)NC(=O)[C@@H](NC(=O)[C@@H](N)CCCCN)C(C)C)C(C)C)C(C)C)C(C)C)[C@@H](C)O)C(C)C)C(C)C)C(=O)N[C@@H](CCCCN)C(N)=O` [SVS‐1] (H-KVKVKVKV[dP]PTKVKVKVK-NH2; N-terminus and C-terminus assumed): the IC50 with MCF‐7 is 11 µM. The drug resistance note in [7] (ref [11], [19], [47]) is recorded as 2D; in vitro drug resistance was observed.

In the case of `CC(C)C[C@H](NC(=O)CN)C(=O)N[C@@H](CC(C)C)C(=O)N[C@@H](CCC(=O)O)C(=O)N[C@@H](CC(C)C)C(=O)N[C@@H](CC(C)C)C(=O)N[C@@H](CCC(=O)O)C(=O)N[C@@H](CC(C)C)C(=O)N[C@@H](CC(C)C)C(=O)N[C@@H](CC(C)C)C(=O)N[C@@H](CCCCN)C(=O)N[C@@H](C)C(=O)N[C@@H](C)C(=O)NCC(=O)N[C@@H](Cc1c[nH]c2ccccc12)C(N)=O` [EEK] (H-GLLELLELLLKAAGW-NH2), the IC50 in the data set on MCF‐10A (2D culture) is above 200 µM; in the data set with various [9], 1 to 27 µM. For the same compound, the IC90 in [8] (3D multicellular spheroids) came to 23 ± 3 µM. The “IC90 against MCF‐10A mammospheres” value in the data set on MCF‐10A mammospheres (3D non‐tumorigenic mammospheres) worked out at 141 ± 11 µM. Also, in the data set with human red blood cells, the “human red blood cell lysis” value is “only minimal human red blood cell lysis below 90 µM”.

Take LL37: in the data set on HCT116, the IC50 was 40 µM. The toxicity note in [7] (ref [69]) is listed as 2D; Vascular toxicity.

With LTX‐315, in the data set on A20, AT84, MRC‐5, the IC50 was 8 to 34 µM.

Regarding `COc1cccc2c1C(=O)c1c(O)c3c(c(O)c1C2=O)C[C@@](O)(C(=O)CO)C[C@@H]3O[C@H]1C[C@H](N)[C@H](O)[C@H](C)O1` [Doxorubicin, Doxorubicin hydrochloride, reference compound], the “IC90 in 2D assay” value in the data set with HMLER‐shEcad [1] (2D HMLER‐shEcad (Figure 3d,f), cells remained viable in the high micromolar range) is “could not be attained”. Also, the IC50 in the data set with HMLER‐shEcad [1] (Homo sapiens, read-out: IC50, HMLER-shEcad cell viability, co-incubation with 5 µM z-VAD-FMK) was 0.0477 ± 0.0026 µM; with HMLER‐shEcad [1] (Homo sapiens, read-out: IC50, HMLER-shEcad cell viability, co-incubation with 20 µM necrostatin-1) it was 0.0631 ± 0.0042 µM; in the data set on HMLER‐shEcad [1] (Homo sapiens, read-out: IC50, HMLER-shEcad cell viability, compound alone), 0.0031 ± 0.0004 µM; in [8] (Homo sapiens, 120 h, 3D multicellular spheroids, 5 days, TOX8 fluorescence read-out, read-out: IC50 against HMLER‐shEcad tumorspheres) it was 43 ± 6 µM; in the data set on HMLER‐shEcad [4] (240 h, 2D HMLER‐shEcad after 10 days co‐incubation with 30 nM doxorubicin, read-out: IC50 of doxorubicin after prolonged doxorubicin exposure) it was 189 ± 68 nM; with HMLER‐shEcad [4] (2D HMLER‐shEcad, vehicle, read-out: IC50 of doxorubicin, cells before/without doxorubicin exposure), 24 ± 2 nM. Also, the “therapeutic window (fold IC50) in 2D assays” value with MCF‐10A (2D assays) was above 100 fold. Also, the “selectivity for cancerous cells over non‐tumorigenic MCF‐10A” value with MCF‐10A (2D culture, ratio of IC50) is above 160 fold. This compound came in with a tumorsphere cell viability in data set [8] (HMLER‐shEcad tumorspheres, at 133 µM) above 15%. Besides, the IC90 in [8] (Homo sapiens, 3D multicellular spheroids) was found to be 138 ± 11 µM. For the same compound, the “IC90 against MCF‐10A mammospheres” value in the data set on MCF‐10A mammospheres worked out at 167 ± 7 µM. In addition, in the data set on MCF‐10A mammospheres (3D spheroid assay), the “therapeutic window (fold IC50) in the 3D assay” value is “≈ 3 fold”.
